According to paper PMC12254266, “Multicolored sequential resonance energy transfer for detection of simultaneous ligand binding at G protein-coupled receptors” (Nature Communications, 2025):
Values joined by “and” are separate entries in the source; they are usually repeats but may differ in a detail not shown here. Equal entries are not always repeated. Each block holds one compound with its values, some of them ahead of it.

Target: FFA1-Nluc (Homo sapiens, UniProt O14842)
Assay: DISCo-BRET (endpoint, spectra scan, kinetics) with TUG-2591 and TUG-2597 at C terminal Nluc tagged FFA1
Format: binding
Parameters: expressed in transfected cells
Details: for pIC50 DISCo-BRET SulfoCy5/NBD: one site model
Procedure: Nluc-FFA1 or FFA1-Nluc Flp-In T-REx 293 cells were plated at 50,000 cells per well in poly-D-lysine coated white 96-well plates. Cells were cultured for 24 h in the plate before medium was replaced with medium containing 100 ng/mL of doxycycline to induce receptor expression. After culturing for a further 24 h, culture medium was removed, cells washed with HBSS and incubated in HBSS for 30 min. For all DISCo-BRET formats Nano-Glo substrate was then added at a 1:800 final dilution and cells incubated for 10 min. Following substrate addition experimental set up different among the three formats: endpoint, spectra scan, and kinetics.
For endpoint experiments all fluorescent and unlabelled ligands were added to the cells and incubated for 5 min at 37 °C. Luminescent emission was then measured using a CLARIOstar microplate reader with monochromator set at 450–60 nm (Nluc), 540−60 nm (NBD) and 690–100 nm (SulfoCy5). BRET ratios were then calculated as either SulfoCy5 emission divided by NBD emission, SulfoCy5 emission divided by Nluc emission, or NBD emission divided by Nluc emission.
For spectra scan experiments all indicated fluorescent and unlabelled ligands were added to the cells and cells incubated for 5 min at 37 °C. Luminescence emissions were then measured from each well of the plate from 440 nm – 740 nm with a 5 nm resolution using a CLARIOstar microplate. Luminescent emission spectra were then normalised as a percentage of the maximal Nluc emission peak ( ~ 460 nm), then subtracted with the spectrum obtained in the presence of high concentrations of ligands competing for both binding sites to obtain specific BRET binding spectra.
In kinetic DISCo-BRET experiments plates were placed directly in a CLARIOstar plate reader set to 25 °C 10 min after Nano-Glo substrate addition. Luminescent measurements were then taken with three sequential measurements per well with the monochromator set to 450–60 nm (Nluc), 540 - 60 nm (NBD) and 690–100 nm (SulfoCy5) taken in 20 or 30 s intervals. After 5 min of background measurements, the plate reader was paused for the first indicated fluorescent ligand(s) addition, before immediately returning the plate to the reader to continue luminescence readings. After 5 min, the reader was again paused to add the second fluorescent ligand (association assays) or competing ligand(s) (dissociation assays), before immediately continuing the measurements for the indicated time. Non-specific control binding was obtained by adding the indicated competing ligand(s) 5 min prior to the addition of the first fluorescent ligand.

[1] = 100 nM TUG-2591 and […] TUG-2597, NC = No competition

FFA1-Nluc, sequence (O14842 whole entry): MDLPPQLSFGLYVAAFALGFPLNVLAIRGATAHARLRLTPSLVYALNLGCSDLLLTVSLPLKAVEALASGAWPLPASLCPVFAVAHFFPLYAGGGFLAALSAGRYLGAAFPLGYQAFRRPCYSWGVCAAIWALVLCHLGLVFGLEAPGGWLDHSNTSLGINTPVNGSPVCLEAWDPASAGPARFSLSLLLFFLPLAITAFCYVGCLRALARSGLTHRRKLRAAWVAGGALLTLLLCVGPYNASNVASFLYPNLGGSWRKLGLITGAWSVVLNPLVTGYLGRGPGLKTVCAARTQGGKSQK

SMILES: CC/C=C\C/C=C\C/C=C\CCCCCCCC(=O)O [aLA, α-linolenic acid, reference compound]
pIC50 DISCo-BRET NBD/Nluc [1]: ~ 2.9 | pIC50 DISCo-BRET SulfoCy5/NBD [1]: ~ 3.7 | Specific BRET (540/450), % of control (log[Ligand] -3.5, Figure 4Bi, single replicate values (technical duplicate)): 354.98 % of control and 422.66 % of control and 352.08 % of control and 364.14 % of control and 218.20 % of control and 190.12 % of control and 192.71 % of control and 171.70 % of control | Specific BRET (540/450), % of control (log[Ligand] -4, Figure 4Bi, single replicate values (technical duplicate)): 179.15 % of control and 260.42 % of control and 251.25 % of control and 232.54 % of control and 120.10 % of control and 104.16 % of control and 145.44 % of control and 143.73 % of control | Specific BRET (540/450), % of control (log[Ligand] -4.5, Figure 4Bi, single replicate values (technical duplicate)): 155.59 % of control and 151.36 % of control and 193.87 % of control and 183.26 % of control and 24.44 % of control and 77.47 % of control and 109.72 % of control and 124.03 % of control | Specific BRET (690/540), % of control (log[Ligand] -4.5, technical duplicate): 81.41 % of control and 79.89 % of control and 110.36 % of control and 102.58 % of control and 55.19 % of control and 61.69 % of control and 79.93 % of control | Specific BRET (540/450), % of control (log[Ligand] -5, Figure 4Bi, single replicate values (technical duplicate)): 123.87 % of control and 127.19 % of control and 164.97 % of control and 169.96 % of control and 63.60 % of control and 42.81 % of control and 103.55 % of control and 110.64 % of control | Specific BRET (690/540), % of control (log[Ligand] -5, technical duplicate): 89.67 % of control and 83.59 % of control and 104.96 % of control and 115.39 % of control and 81.83 % of control and 84.93 % of control and 95.09 % of control and 92.80 % of control | Specific BRET (540/450), % of control (log[Ligand] -5.5, Figure 4Bi, single replicate values (technical duplicate)): 115.11 % of control and 123.26 % of control and 154.99 % of control and 156.24 % of control and 24.44 % of control and 64.99 % of control and 93.96 % of control and 98.42 % of control | Specific BRET (690/540), % of control (log[Ligand] -5.5, technical duplicate): 91.96 % of control and 95.98 % of control and 110.87 % of control and 118.78 % of control and 93.29 % of control and 101.24 % of control and 95.01 % of control and 95.16 % of control | Specific BRET (540/450), % of control (log[Ligand] -6, Figure 4Bi, single replicate values (technical duplicate)): 117.22 % of control and 113.60 % of control and 140.23 % of control and 145.01 % of control and 35.88 % of control and 33.45 % of control and 94.09 % of control and 108.27 % of control | Specific BRET (540/450), % of control (log[Ligand] -7, Figure 4Bi, single replicate values (technical duplicate)): 110.27 % of control and 80.36 % of control and 117.15 % of control and 115.28 % of control and 96.88 % of control and 77.82 % of control and 92.78 % of control and 101.71 % of control | Specific BRET (690/540), % of control (log[Ligand] -7, technical duplicate): 92.39 % of control and 86.20 % of control and 111.87 % of control and 113.13 % of control and 97.73 % of control and 97.01 % of control and 100.19 % of control and 94.25 % of control | Specific BRET (690/540), % of control (log[ligand] -6, technical duplicate): 86.09 % of control and 86.20 % of control and 111.62 % of control and 112.25 % of control and 100.93 % of control and 101.65 % of control and 99.73 % of control and 101.33 % of control

pIC50 DISCo-BRET SulfoCy5/NBD [1]: 6.2±0.07 | 'bottom' of the IC50 curve, DISCo-BRET SulfoCy5/NBD (percentage of binding obtained in the absence of competing ligand, 100 nM TUG-2591 and […] TUG-2597): 26% | pKi DISCo-BRET SulfoCy5/NBD (using Kd TUG-2591 57 nM): 6.6±0.07
SMILES: CCCN1C(=O)c2ccccc2[C@@H](C(=O)O)[C@@H]1c1ccc(OCc2cccc(-c3ccc(OCCOCCNC(=O)OC(C)(C)C)cc3C)c2)cc1 (racemic) [TUG-2744]
Specific BRET (690/540), % of control (log[Ligand] -5, Figure 4Aiii, single replicate values (technical duplicate)): 39.83 % of control and 31.90 % of control and 49.72 % of control and 41.62 % of control and 42.27 % of control and 54.60 % of control and 24.29 % of control and 24.93 % of control | Specific BRET (540/450), % of control (log[Ligand] -5, Figure 4Biii, single replicate values (technical duplicate)): 137.97 % of control and 140.19 % of control and 93.19 % of control and 74.76 % of control | Specific BRET (690/540), % of control (log[Ligand] -5.5, Figure 4Aiii, single replicate values (technical duplicate)): 37.03 % of control and 28.64 % of control and 34.65 % of control and 33.07 % of control and 31.01 % of control and 33.80 % of control and 21.95 % of control and 22.19 % of control | Specific BRET (540/450), % of control (log[Ligand] -5.5, Figure 4Biii, single replicate values (technical duplicate)): 128.99 % of control and 129.28 % of control and 107.91 % of control and 104.11 % of control and 75.59 % of control and 66.37 % of control | Specific BRET (690/540), % of control (log[Ligand] -6, Figure 4Aiii, single replicate values (technical duplicate)): 54.48 % of control and 58.02 % of control and 68.62 % of control and 58.61 % of control and 60.18 % of control and 39.48 % of control and 47.55 % of control and 54.64 % of control | Specific BRET (540/450), % of control (log[Ligand] -6, Figure 4Biii, single replicate values (technical duplicate)): 100.93 % of control and 117.25 % of control and 87.18 % of control and 77.69 % of control and 68.48 % of control and 67.29 % of control | Specific BRET (690/540), % of control (log[Ligand] -6.5, Figure 4Aiii, single replicate values (technical duplicate)): 81.72 % of control and 80.69 % of control and 83.13 % of control and 96.40 % of control and 81.56 % of control and 79.15 % of control and 75.55 % of control and 78.81 % of control | Specific BRET (540/450), % of control (log[Ligand] -6.5, Figure 4Biii, single replicate values (technical duplicate)): 102.36 % of control and 114.39 % of control and 83.39 % of control and 83.86 % of control and 94.27 % of control and 96.38 % of control | Specific BRET (690/540), % of control (log[Ligand] -7, Figure 4Aiii, single replicate values (technical duplicate)): 91.79 % of control and 92.91 % of control and 97.64 % of control and 109.79 % of control and 98.51 % of control and 104.19 % of control and 93.40 % of control and 97.61 % of control | Specific BRET (540/450), % of control (log[Ligand] -7, Figure 4Biii, single replicate values (technical duplicate)): 116.11 % of control and 107.80 % of control and 95.73 % of control and 91.61 % of control and 84.18 % of control and 85.41 % of control | Specific BRET (690/540), % of control (log[Ligand] -8, Figure 4Aiii, single replicate values (technical duplicate)): 103.08 % of control and 96.92 % of control and 107.31 % of control and 115.19 % of control and 106.98 % of control and 101.78 % of control and 103.46 % of control and 103.17 % of control | Specific BRET (540/450), % of control (log[Ligand] -8, Figure 4Biii, single replicate values (technical duplicate)): 110.67 % of control and 105.51 % of control and 101.90 % of control and 100.00 % of control and 64.33 % of control and 77.86 % of control | Specific BRET (690/540), % of control (log[Ligand] -9, Figure 4Aiii, single replicate values (technical duplicate)): 95.62 % of control and 111.25 % of control and 100.79 % of control and 103.71 % of control and 132.11 % of control | Specific BRET (540/450), % of control (log[Ligand] -9, Figure 4Biii, single replicate values (technical duplicate)): 110.95 % of control and 125.84 % of control and 113.61 % of control and 148.10 % of control and 60.11 % of control and 65.92 % of control
